Measured values taken from US10442778B2, “N1-phenylpropane-1,2-diamine compounds with selective activity in voltage-gated sodium channels” (Merck Sharp & Dohme Corp., priority 2016, dated 2019).

Key:
[1] = target: T1, human Nav1.7 channels stably expressed in HEK 293 cells (Homo sapiens, UniProt Q15858); assay: IonWorks Quattro automated patch-clamp, inactivated state block of Nav1.7; type: cell-based; details: double-pulse protocol, read-out: potency for the Nav 1.7 sodium ion channel (as measured by IonWorks)
T1 construct: expressed in transfected cells; host or cells: HEK 293
Description: (§1) Compounds were tested on human Nav1.7 and Nav1.5 channels stably expressed in HEK 293 cells. […] Cells were sealed on a planar substrate using the Population Patch Plate (PPC) technology. Electrical access was obtained using both nystatin and amphotericin. A double-pulse protocol was used for the determination of IC50 values for inactivated state block. Nav1.7 and Nav1.5 expressing cells were voltage clamped at −100 mV and −110 mV, respectively. A depolarizing prepulse to −10 mV (Nav1.7) or −30 mV (Nav1.5) for 1000 ms followed by a 10 ms repolarization to −100 mV (Nav1.7) or −110 mV (Nav1.5) was given to generate fractional channel inactivation of ˜50%, followed by a 10 ms test pulse to −10 mV (Nav1.7) or −30 mV (Nav1.5) to measure peak current in control conditions and after compound addition. The following recording solutions were used (mM). External: 150 NaCl, 2 CaCl2, 5 KCl, 1 Mg Cl2, 10 HEPES, 12 Dextrose; internal: 120 CsF, 30 CsCl, 10 EGTA, 5 HEPES, 5 NaF, 2 MgCl2.
(§2) For all electrophysiology experiments, offline analysis was used to determine percent inhibition as a function of drug concentration. IC50 values were determined by fitting to the Hill equation.

[2] = target: T2, human Nav1.5 channels stably expressed in HEK 293 cells (Homo sapiens, UniProt Q14524); assay: IonWorks Quattro automated patch-clamp, inactivated state block of Nav1.5 (selectivity); type: cell-based; details: IonWorks measurement, both channels in HEK 293 cells
T2 construct: expressed in transfected cells; host or cells: HEK 293
Description: as §1, §2

T1 sequence (Q15858 whole entry): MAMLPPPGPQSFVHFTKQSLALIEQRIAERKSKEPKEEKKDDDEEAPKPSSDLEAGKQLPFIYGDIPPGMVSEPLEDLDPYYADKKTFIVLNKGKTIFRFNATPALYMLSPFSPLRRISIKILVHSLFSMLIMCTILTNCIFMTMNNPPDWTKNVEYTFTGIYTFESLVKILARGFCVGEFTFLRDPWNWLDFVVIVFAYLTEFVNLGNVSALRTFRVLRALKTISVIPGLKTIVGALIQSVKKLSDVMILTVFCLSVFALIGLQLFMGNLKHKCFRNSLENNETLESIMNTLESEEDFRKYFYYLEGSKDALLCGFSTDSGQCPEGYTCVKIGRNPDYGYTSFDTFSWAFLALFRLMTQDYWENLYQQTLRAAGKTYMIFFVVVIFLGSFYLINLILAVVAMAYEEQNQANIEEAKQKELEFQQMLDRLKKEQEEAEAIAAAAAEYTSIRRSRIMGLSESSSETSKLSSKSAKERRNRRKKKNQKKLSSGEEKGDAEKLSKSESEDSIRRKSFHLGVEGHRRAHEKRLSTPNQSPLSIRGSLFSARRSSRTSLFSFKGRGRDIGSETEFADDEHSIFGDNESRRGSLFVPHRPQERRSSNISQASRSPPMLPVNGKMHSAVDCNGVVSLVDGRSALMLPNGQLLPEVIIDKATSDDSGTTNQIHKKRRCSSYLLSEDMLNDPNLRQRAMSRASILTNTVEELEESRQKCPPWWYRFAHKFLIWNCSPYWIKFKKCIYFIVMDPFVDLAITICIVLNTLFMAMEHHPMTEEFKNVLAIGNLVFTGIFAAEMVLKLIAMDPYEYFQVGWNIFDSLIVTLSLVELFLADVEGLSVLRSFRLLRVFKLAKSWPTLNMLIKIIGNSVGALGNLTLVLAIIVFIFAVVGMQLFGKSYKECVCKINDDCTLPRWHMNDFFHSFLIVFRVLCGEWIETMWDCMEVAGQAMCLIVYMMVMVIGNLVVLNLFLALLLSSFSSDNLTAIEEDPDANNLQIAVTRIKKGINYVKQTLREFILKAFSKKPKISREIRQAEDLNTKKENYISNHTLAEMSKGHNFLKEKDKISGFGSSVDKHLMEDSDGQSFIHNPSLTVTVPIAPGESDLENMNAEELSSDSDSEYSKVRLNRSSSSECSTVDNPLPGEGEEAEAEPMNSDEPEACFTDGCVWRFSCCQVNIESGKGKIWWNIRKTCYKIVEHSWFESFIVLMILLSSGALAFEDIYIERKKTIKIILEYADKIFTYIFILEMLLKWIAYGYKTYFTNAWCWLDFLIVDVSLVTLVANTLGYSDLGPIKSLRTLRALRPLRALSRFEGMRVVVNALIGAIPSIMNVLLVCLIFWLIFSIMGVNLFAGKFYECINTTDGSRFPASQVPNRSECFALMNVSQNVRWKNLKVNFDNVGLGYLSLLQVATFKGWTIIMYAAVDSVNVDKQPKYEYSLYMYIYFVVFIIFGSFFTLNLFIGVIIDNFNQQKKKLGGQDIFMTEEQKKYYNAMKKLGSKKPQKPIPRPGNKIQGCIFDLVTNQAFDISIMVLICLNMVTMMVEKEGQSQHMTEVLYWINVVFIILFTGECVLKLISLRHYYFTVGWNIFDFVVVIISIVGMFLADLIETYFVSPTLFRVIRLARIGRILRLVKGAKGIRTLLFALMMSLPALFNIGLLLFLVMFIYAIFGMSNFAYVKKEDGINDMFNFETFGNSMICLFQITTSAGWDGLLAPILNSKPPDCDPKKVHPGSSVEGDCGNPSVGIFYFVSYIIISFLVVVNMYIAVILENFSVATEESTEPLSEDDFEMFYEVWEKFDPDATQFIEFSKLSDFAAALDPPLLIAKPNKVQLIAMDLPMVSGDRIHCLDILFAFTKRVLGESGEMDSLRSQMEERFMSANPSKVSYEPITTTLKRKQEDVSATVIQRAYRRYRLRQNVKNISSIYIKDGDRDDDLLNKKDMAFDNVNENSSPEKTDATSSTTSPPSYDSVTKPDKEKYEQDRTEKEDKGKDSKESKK
T2 sequence (Q14524 whole entry): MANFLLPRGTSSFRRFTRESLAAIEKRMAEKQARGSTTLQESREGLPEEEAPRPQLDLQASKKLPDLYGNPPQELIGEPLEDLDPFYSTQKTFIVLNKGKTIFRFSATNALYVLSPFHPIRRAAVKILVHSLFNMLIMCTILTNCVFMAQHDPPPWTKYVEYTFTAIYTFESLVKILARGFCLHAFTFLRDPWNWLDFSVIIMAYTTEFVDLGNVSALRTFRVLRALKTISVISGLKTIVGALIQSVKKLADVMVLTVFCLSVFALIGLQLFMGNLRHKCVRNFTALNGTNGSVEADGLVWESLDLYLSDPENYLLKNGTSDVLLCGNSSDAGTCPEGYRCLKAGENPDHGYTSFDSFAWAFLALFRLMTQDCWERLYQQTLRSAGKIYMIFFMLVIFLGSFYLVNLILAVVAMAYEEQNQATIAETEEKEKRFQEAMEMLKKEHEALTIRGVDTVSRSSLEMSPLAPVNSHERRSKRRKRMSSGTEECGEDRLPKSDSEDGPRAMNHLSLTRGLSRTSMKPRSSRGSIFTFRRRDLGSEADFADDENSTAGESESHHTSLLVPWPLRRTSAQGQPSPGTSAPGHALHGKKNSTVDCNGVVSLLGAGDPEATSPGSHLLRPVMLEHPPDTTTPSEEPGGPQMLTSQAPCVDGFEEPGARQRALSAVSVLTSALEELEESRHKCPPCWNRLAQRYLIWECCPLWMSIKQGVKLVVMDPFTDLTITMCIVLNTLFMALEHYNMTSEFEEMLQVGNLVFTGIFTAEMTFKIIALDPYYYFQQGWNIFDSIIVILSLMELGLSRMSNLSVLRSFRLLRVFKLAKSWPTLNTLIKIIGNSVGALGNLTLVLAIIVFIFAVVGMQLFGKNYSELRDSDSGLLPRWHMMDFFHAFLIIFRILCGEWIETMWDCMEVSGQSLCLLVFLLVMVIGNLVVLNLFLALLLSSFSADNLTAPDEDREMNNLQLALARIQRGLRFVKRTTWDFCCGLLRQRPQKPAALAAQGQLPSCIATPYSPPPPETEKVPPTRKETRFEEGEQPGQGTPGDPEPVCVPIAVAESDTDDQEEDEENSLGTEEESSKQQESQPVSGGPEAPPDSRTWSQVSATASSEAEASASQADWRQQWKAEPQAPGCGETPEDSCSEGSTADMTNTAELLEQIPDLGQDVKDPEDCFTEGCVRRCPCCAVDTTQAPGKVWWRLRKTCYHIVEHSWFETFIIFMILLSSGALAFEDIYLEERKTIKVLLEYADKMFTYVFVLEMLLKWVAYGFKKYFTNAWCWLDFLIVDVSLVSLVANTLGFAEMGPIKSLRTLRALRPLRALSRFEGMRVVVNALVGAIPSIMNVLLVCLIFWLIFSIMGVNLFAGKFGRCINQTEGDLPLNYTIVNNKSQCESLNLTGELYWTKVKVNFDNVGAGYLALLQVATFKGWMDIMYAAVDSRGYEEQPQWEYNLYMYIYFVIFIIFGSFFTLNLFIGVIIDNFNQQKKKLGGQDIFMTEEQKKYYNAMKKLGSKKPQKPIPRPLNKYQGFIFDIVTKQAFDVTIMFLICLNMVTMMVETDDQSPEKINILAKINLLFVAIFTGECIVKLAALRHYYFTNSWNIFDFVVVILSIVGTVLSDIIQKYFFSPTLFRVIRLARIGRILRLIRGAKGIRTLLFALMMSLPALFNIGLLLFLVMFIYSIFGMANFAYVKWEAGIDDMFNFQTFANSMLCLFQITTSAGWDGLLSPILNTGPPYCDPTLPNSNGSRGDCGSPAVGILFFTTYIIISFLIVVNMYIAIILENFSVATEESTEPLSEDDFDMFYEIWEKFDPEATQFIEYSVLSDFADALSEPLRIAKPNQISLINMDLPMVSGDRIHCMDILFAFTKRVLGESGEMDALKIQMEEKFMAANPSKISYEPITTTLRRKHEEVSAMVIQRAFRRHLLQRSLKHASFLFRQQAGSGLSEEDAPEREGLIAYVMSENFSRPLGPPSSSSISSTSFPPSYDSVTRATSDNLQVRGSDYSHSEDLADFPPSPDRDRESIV

Structure (SMILES) | IC50 [1] [nM] | ratio of Nav1.7 potency:Nav 1.5 potency [2]
CN[C@H](CNc1cc(F)c(S(=O)(=O)Nc2nccs2)cc1Cl)Cc1ccc(F)cc1 (single isomer, unassigned) [Ex1-12] | 61 | > 541
CN[C@H](CNc1cc(F)c(S(=O)(=O)Nc2ncc(F)s2)cc1Cl)CC1CCCC1 (single isomer, unassigned) [Ex3-11] | 110 | –
CN[C@H](CNc1cc(F)c(S(=O)(=O)Nc2ncc(F)s2)cc1Cl)CC1(CF)CC1 (single isomer, unassigned) [Ex5-4] | 2000 | > 14
CN[C@H](CNc1cc(F)c(S(=O)(=O)Nc2nccs2)cc1Cl)Cc1ccccc1 [Ex1-7, (S)-5-chloro-2-fluoro-4-((2-(methylamino)-3-phenylpropyl)amino)-N-(thiazol-2-yl)benzenesulfonamide] | 200 | –
CN[C@H](CNc1cc(F)c(S(=O)(=O)Nc2nccs2)cc1Cl)CC1CCCCC1 [Ex1-18, (S)-5-chloro-4-((3-cyclohexyl-2-(methylamino)propyl)amino)-2-fluoro-N-(thiazol-2-yl)benzenesulfonamide] | 15 | > 2200
CN[C@H](CNc1cc(F)c(S(=O)(=O)Nc2nccs2)cc1Cl)Cc1cccc(Cl)c1 [Ex1-19, (S)-5-chloro-4-((3-(3-chlorophenyl)-2-(methyl-amino)propyl)-amino)-2-fluoro-N-(thiazol-2-yl)-benzenesulfonamide] | 24 | > 1375
CN[C@H](CNc1cc(F)c(S(=O)(=O)Nc2nccs2)cc1Cl)Cc1ccc(C)cc1 [Ex1-20, (S)-5-chloro-2-fluoro-4-((2-(methylamino)-3-(p-tolyl)propyl)amino)-N-(thiazol-2-yl)-benzenesulfonamide] | 280 | > 118
CN[C@@H](CCc1ccccc1)CNc1cc(F)c(S(=O)(=O)Nc2nccs2)cc1Cl [Ex1-21, (S)-5-chloro-2-fluoro-4-((2-(methylamino)-4-phenylbutyl)amino)-N-(thiazol-2-yl)-benzenesulfonamide] | 200 | –
CN[C@H](CNc1cc(F)c(S(=O)(=O)Nc2nccs2)cc1Cl)Cc1ccc(Br)cc1 [Ex1-25, (S)-4-((3-(4-bromo-phenyl)-2-(methylamino)-propyl)amino)-5-chloro-2-fluoro-N-(thiazol-2-yl)-benzenesulfonamide] | 110 | –
CN[C@H](CNc1cc(F)c(S(=O)(=O)Nc2ncns2)cc1Cl)Cc1ccccc1 [Ex1-26, (S)-5-chloro-2-fluoro-4-((2-(methylamino)-3-phenylpropyl)amino)-N-(1,2,4-thiadiazol-5-yl)-benzenesulfonamide] | 200 | –
CN[C@H](CNc1cc(F)c(S(=O)(=O)Nc2nccs2)cc1Cl)Cc1ccc(F)cc1Br [Ex1-32, (S)-4-((3-(2-bromo-4-fluorophenyl)-2-(methyl-amino)propyl)-amino)-5-chloro-2-fluoro-N-(thiazol-2-yl)-benzenesulfonamide] | 170 | –
CN[C@H](CNc1cc(F)c(S(=O)(=O)Nc2ncc(F)s2)cc1Cl)CC1(C(F)(F)F)CC1 [Ex2-14, (S)-5-chloro-2-fluoro-N-(5-fluorothiazol-2-yl)-4-((2-(methylamino)-3-(1-(trifluoromethyl)cyclopropyl)-propyl)amino)benzenesulfonamide] | 170 | –
CN[C@H](CNc1cc(F)c(S(=O)(=O)Nc2ncc(F)s2)cc1Cl)CC1CC1(Cl)Cl (stereo partly drawn) [Ex2-21, 5-chloro-4-(((2S)-3-(2,2-dichlorocyclopropyl)-2-(methylamino)propyl)amino)-2-fluoro-N-(5-fluorothiazol-2-yl)-benzenesulfonamide] | 110 | –
CN(C)[C@H](CNc1cc(F)c(S(=O)(=O)Nc2ncc(F)s2)cc1Cl)CC1(C)CC1 [Ex7-3, (S)-5-chloro-4-((2-(dimethylamino)-3-(1-methylcyclopropyl)propyl)amino)-2-fluoro-N-(5-fluorothiazol-2-yl)benzenesulfonamide] | 150 | –
